In patent US20070213283A1, “Macrolides substituted at the 4"-position” (priority 2003, published 2007):
Counter-ions that a name gives are not always drawn. Like-named read-outs stand apart in the source and are kept apart here.

Experiments:
Test in all cases: MIC, standard broth dilution method in microtitre
Format in all cases: cell-based
[1] = system: erythromycin resistant strains of Streptococcus pyogenes
Procedure: (§1) Using a standard broth dilution method in microtitre, compounds were tested for antibacterial activity. The compounds in the above examples gave minimum inhibitory concentrations (MICs) less than 1 microgram per millilitre against erythromycin-sensitive and erythromycin-resistant strains of Streptococcus pneumoniae and Streptococcus pyogenes.

[2] = system: erythromycin resistant strains of Streptococcus pneumoniae
Procedure: as §1

[3] = system: S. pneumoniae SP030; conditions: Streptococcus pneumoniae
Procedure: as §1
(§2) In addition, the MIC (μg/mL) of test compounds against various organisms was determined including:
(§3) S. aureus Smith ATCC 13709, S. pneumoniae SP030, S. pyogenes 3565, E. faecalis ATCC 29212, H. influenzae ATCC 49247, M. catarrhalis ATCC 23246.

[4] = system: S. aureus Smith ATCC 13709; conditions: Staphylococcus aureus, ATCC13709
Procedure: as §1, §2, §3

[5] = system: E. faecalis ATCC 29212; conditions: Enterococcus faecalis, ATCC29212
Procedure: as §1, §2, §3

[6] = system: S. pyogenes 3565; conditions: Streptococcus pyogenes
Procedure: as §1, §2, §3

[7] = system: M. catarrhalis ATCC 23246; conditions: Moraxella catarrhalis, ATCC23246
Procedure: as §1, §2, §3

[8] = system: H. influenzae ATCC 49247; conditions: Haemophilus influenzae, ATCC49247
Procedure: as §1, §2, §3

[9] = H. influenzae ATCC 49247, broth dilution in microtitre, read-out: MIC

MIC [1]	MIC [2]	MIC [3]	MIC [4]	MIC [5]	MIC [6]	MIC [7]	MIC [8, 9]	SMILES	MIC [8]
≤ 0.25 µg/mL	≤ 0.25 µg/mL	≤ 1 µg/mL	≤ 1 µg/mL	≤ 1 µg/mL	≤ 1 µg/mL			CC[C@@H]1OC(=O)[C@H](C)[C@H](O[C@@H]2C[C@](C)(OC)[C@H](OC(=O)CCNCCSc3cnc4c(c3)c(=O)c(C(=O)O)cn4CC)[C@H](C)O2)[C@@H](C)[C@H](O[C@@H]2O[C@H](C)C[C@H](N(C)C)[C@@H]2O)[C@@](C)(OC)C[C@H](C)C(=O)[C@H](C)[C@@H](O)[C@]1(C)O [Example 5, 4″-O-{3-[2-(3-Carboxy-1-ethyl-4-oxo-1,4-dihydro-[1,8]naphthyridin-6-ylsulfanyl)ethylamino]propionyl}-6-O-methyl-erythromycin A monoformate salt]	
≤ 0.25 µg/mL	≤ 0.25 µg/mL	≤ 1 µg/mL	≤ 1 µg/mL	≤ 1 µg/mL	≤ 1 µg/mL			CC[C@@H]1OC(=O)[C@H](C)[C@H](O[C@@H]2C[C@](C)(O)[C@H](OC(=O)CCNCCSc3ccc4c(c3)c(=O)c(C(=O)OC)cn4CC)[C@H](C)O2)[C@@H](C)[C@H](O[C@@H]2O[C@H](C)C[C@H](N(C)C)[C@@H]2O)[C@](C)(OC)C[C@H](C)C(=O)[C@H](C)[C@@H](O)[C@]1(C)O [Example 7, 4″-O-{3-[2-(3-Carboxyl-1-ethyl-4-oxo-1,4-dihydro-6-quinolinylsulfanyl)ethylamino]propionyl}-6-O-methyl-erythromycin A methyl ester]	
≤ 0.25 µg/mL	≤ 0.25 µg/mL	≤ 1 µg/mL	≤ 1 µg/mL	≤ 1 µg/mL	≤ 1 µg/mL	≤ 2 µg/mL	≤ 2 µg/mL	CC[C@@H]1OC(=O)[C@H](C)[C@H](O[C@@H]2C[C@](C)(OC)[C@H](OC(=O)CCNCCSc3ccc4c(c3)c(=O)c(C(=O)O)cn4CC)[C@H](C)O2)[C@@H](C)[C@H](O[C@@H]2O[C@H](C)C[C@H](N(C)C)[C@@H]2O)[C@](C)(O)C[C@H](C)CN(C)[C@@H](C)[C@@H]2OC(=O)O[C@@]12C [Example 11, 4″-O-{3-[2-(3-Carboxy-1-ethyl-4-oxo-1,4-dihydro-6-quinolinysulfanyl)ethylamino]propionyl}-azithromycin11,12-carbonate]	
≤ 0.25 µg/mL	≤ 0.25 µg/mL							CC[C@@H]1OC(=O)[C@H](C)[C@H](O[C@@H]2C[C@](C)(OC)[C@H](OC(=O)CCNCCOc3ccc4c(c3)c(=O)c(C(=O)O)cn4CC)[C@H](C)O2)[C@@H](C)[C@H](O[C@@H]2O[C@H](C)C[C@H](N(C)C)[C@@H]2O)[C@](C)(OC)C[C@H](C)C(=O)[C@H](C)[C@@H](O)[C@]1(C)O [Example 15, 4″-O-{3-[2-(3-Carboxy-1-ethyl-4-oxo-1,4-dihydro-6-quinolinyloxy)ethylamino]propionyl}-6-O-methyl-erythromycin A monoformate salt]	
≤ 0.25 µg/mL	≤ 0.25 µg/mL	≤ 1 µg/mL	≤ 1 µg/mL	≤ 1 µg/mL	≤ 1 µg/mL	≤ 2 µg/mL	≤ 2 µg/mL	CC[C@@H]1OC(=O)[C@H](C)[C@H](O[C@@H]2C[C@](C)(OC)[C@H](OC(=O)CCNCCOc3ccc4c(=O)c(C(=O)O)cn(CC)c4c3)[C@H](C)O2)[C@@H](C)[C@H](O[C@@H]2O[C@H](C)C[C@H](N(C)C)[C@@H]2O)[C@](C)(OC)C[C@H](C)C(=O)[C@H](C)[C@@H](O)[C@]1(C)O [Example 17, 4″-O-{3-[2-(3-Carboxy-1-ethyl-4-oxo-1,4-dihydro-7-quinolinyloxy)ethylamino]propionyl}-6-O-methyl-erythromycin A]	
≤ 0.25 µg/mL	≤ 0.25 µg/mL	≤ 1 µg/mL	≤ 1 µg/mL	≤ 1 µg/mL	≤ 1 µg/mL	≤ 2 µg/mL	≤ 2 µg/mL	CC[C@H]1OC(=O)[C@H](C)[C@@H](O[C@H]2C[C@@](C)(OC)[C@@H](OC(=O)CCOCCNc3ccc4c(c3)c(=O)c(C(=O)O)cn4C3CC3)[C@H](C)O2)[C@@H](C)[C@@H](O[C@@H]2O[C@H](C)C[C@H](N(C)C)[C@H]2O)[C@](C)(O)C[C@@H](C)CN(C)[C@H](C)[C@@H](O)[C@]1(C)O [Example 19, 4″-O-{3-[2-(3-Carboxy-1-cyclopropyl-4-oxo-1,4-dihydro-6-quinolinylamino)ethoxy]propionyl}-azithromycin]	
≤ 0.25 µg/mL	≤ 0.25 µg/mL	≤ 1 µg/mL	≤ 1 µg/mL	≤ 1 µg/mL	≤ 1 µg/mL	≤ 2 µg/mL	≤ 2 µg/mL	CC[C@H]1OC(=O)[C@H](C)[C@@H](O[C@H]2C[C@@](C)(OC)[C@@H](OC(=O)CCOCCNc3cc4c(=O)c(C(=O)O)cn(C5CC5)c4cc3Cl)[C@H](C)O2)[C@H](C)[C@@H](O[C@@H]2O[C@H](C)C[C@H](N(C)C)[C@H]2O)[C@](C)(O)C[C@@H](C)CN(C)[C@H](C)[C@@H](OC)[C@]1(C)O [Example 23, 4″-O-{3-[2-(3-Carboxy-7-chloro-1-cyclopropyl-4-oxo-1,4-dihydro-6-quinolinylamino)ethoxy]propionyl}-11-O-methyl-azithromycin]	

Second part, the compound before the results:

SMILES	MIC [1]	MIC [2]	MIC [3]	MIC [4]	MIC [5]	MIC [6]	MIC [7]	MIC [8, 9]	MIC [8]
CC[C@@H]1OC(=O)[C@H](C)[C@H](O[C@@H]2O[C@H](C)[C@H](OC(=O)CCNCCSc3ccc4c(c3)c(=O)c(C(=O)O)cn4CC)[C@@](C)(OC)O2)[C@@H](C)[C@H](O[C@H]2O[C@@H](C)C[C@@H](N(C)C)[C@H]2O)[C@](C)(OC)C[C@H](C)C(=O)[C@@H](C)[C@@H]2NC(=O)O[C@@]12C [Example 9, 4″-O-{3-[2-(3-Carboxy-1-ethyl-4-oxo-1,4-dihydro-quinolinylsulfanyl)ethylamino]propionyl}-6-O-methyl-11-desoxy-11-(R)amino-erythromycin A11,12-carbamate bis trifluoroacetate salt]	≤ 0.25 µg/mL	≤ 0.25 µg/mL	≤ 1 µg/mL	≤ 1 µg/mL	≤ 1 µg/mL	≤ 1 µg/mL	≤ 2 µg/mL		≤ 2 µg/mL
CC[C@@H]1OC(=O)[C@H](C)[C@H](O[C@@H]2C[C@](C)(OC)[C@H](OC(=O)CCNCCOc3cc4c5c(c3)c(=O)c(C(=O)O)cn5CCC4)[C@H](C)O2)[C@@H](C)[C@H](O[C@@H]2O[C@H](C)C[C@H](N(C)C)[C@@H]2O)[C@](C)(OC)C[C@H](C)C(=O)[C@H](C)[C@@H](O)[C@]1(C)O [Example 13, 4′-O-{3-[2-(6-Carboxy-7-oxo-2,3-dihydro-1H,7H-pyrido[3,2,1-ij]quinolin-9-yloxy)ethylamino]propionyl}-6-O-methyl-erythromycin A bis trifluoroacetate salt]	≤ 0.25 µg/mL	≤ 0.25 µg/mL	≤ 1 µg/mL	≤ 1 µg/mL	≤ 1 µg/mL	≤ 1 µg/mL	≤ 2 µg/mL		≤ 2 µg/mL
CC[C@H]1OC(=O)[C@H](C)[C@@H](O[C@H]2C[C@@](C)(OC)[C@@H](OC(=O)CCOCCNc3cc4c(=O)c(C(=O)O)cn(C5CC5)c4cc3Cl)[C@H](C)O2)[C@@H](C)[C@@H](O[C@@H]2O[C@H](C)C[C@H](N(C)C)[C@H]2O)[C@](C)(O)C[C@@H](C)CN(C)[C@H](C)[C@@H](O)[C@]1(C)O [Example 18, 4″-O-{3-[2-(3-Carboxy-7-chloro-1-cyclopropyl-4-oxo-1,4-dihydro-4-quinolinylamino)ethoxy]propionyl}-azithromycin]	≤ 0.25 µg/mL	≤ 0.25 µg/mL	≤ 1 µg/mL	≤ 1 µg/mL	≤ 1 µg/mL	≤ 1 µg/mL	≤ 2 µg/mL	≤ 2 µg/mL	
CC[C@H]1OC(=O)[C@H](C)[C@@H](O[C@H]2C[C@@](C)(OC)[C@@H](OC(=O)CCOCCOc3cc4c(=O)c(C(=O)O)cn(C5CC5)c4cc3Cl)[C@H](C)O2)[C@H](C)[C@@H](O[C@@H]2O[C@H](C)C[C@H](N(C)C)[C@H]2O)[C@](C)(O)C[C@@H](C)CN(C)[C@H](C)[C@@H](O)[C@]1(C)O [Example 27, 4″-O-{3-[2-(3-Carboxy-7-chloro-1-cyclopropyl-4-oxo-1,4-dihydro-quinolin-6-yloxy)ethoxy]-propionyl}-azithromycin]	≤ 0.25 µg/mL	≤ 0.25 µg/mL	≤ 1 µg/mL	≤ 1 µg/mL	≤ 1 µg/mL	≤ 1 µg/mL	≤ 2 µg/mL	≤ 2 µg/mL	
CC[C@H]1OC(=O)[C@H](C)[C@@H](O[C@H]2C[C@@](C)(OC)[C@@H](OC(=O)CCOCCOc3cc4c(=O)c(C(=O)OCOC(=O)C(C)(C)C)cn(C5CC5)c4cc3Cl)[C@H](C)O2)[C@H](C)[C@@H](O[C@@H]2O[C@H](C)C[C@H](N(C)C)[C@H]2O)[C@](C)(O)C[C@@H](C)CN(C)[C@H](C)[C@@H](O)[C@]1(C)O [Example 28, 4″-O-(3-{2-[7-chloro-1-cyclopropyl-3-(2,2-dimethyl-propionyloxymethoxycarbonyl)-4-oxo-1,4-dihydro-quinolin-6-yloxy]-ethoxy}-propionyl)-azithromycin]	≤ 0.25 µg/mL	≤ 0.25 µg/mL	≤ 1 µg/mL	≤ 1 µg/mL	≤ 1 µg/mL	≤ 1 µg/mL			
